# Where two headings read alike, the source gives them in different places.
# Experiments:
# [1] = target: T1, human phenylalanine hydroxylase (hPAH) (Homo sapiens, UniProt P00439); experiment: Differential scanning fluorimetry (thermal denaturation); type: binding; conditions: for ΔTm1 (regulatory domain) / ΔTm2 (catalytic domain): 100 μM compound vs 1% DMSO control, * S.D. < 0.01
# T1 construct: Recombinant full-length wild-type (WT) hPAH was expressed in E. coli Top10 cells in fusion with a hexa-histidyl peptide; made in house; host or cells: E. coli Top10
# T1 sequence (P00439 1-452): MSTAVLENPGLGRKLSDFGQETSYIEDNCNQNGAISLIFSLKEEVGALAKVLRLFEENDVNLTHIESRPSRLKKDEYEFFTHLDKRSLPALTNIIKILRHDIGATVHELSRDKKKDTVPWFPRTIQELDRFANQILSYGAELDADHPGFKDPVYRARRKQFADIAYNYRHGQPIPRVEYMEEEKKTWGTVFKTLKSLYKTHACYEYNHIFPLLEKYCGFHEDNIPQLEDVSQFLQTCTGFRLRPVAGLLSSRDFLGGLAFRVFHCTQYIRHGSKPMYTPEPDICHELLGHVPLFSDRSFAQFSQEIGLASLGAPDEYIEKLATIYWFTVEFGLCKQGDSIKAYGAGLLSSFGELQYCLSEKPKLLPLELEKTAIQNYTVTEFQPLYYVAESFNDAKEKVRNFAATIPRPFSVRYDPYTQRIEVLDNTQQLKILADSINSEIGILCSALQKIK
# Description: Thermal denaturation profiles of recombinant hPAH were obtained by differential scanning fluorimetry (DSF) in a C1000 Touch thermal cycler equipped with a CFX96 optical reaction module (Bio-Rad; Hercules, CA, USA) as previously described. Briefly, DSF assays (n = 3) were performed using 100 μg/mL hPAH tetramers (final concentration of 0.45 μM of tetramer), SYPRO Orange (5000-fold commercially available stock solution; Invitrogen; Carlsbad, CA, USA) at a 2.5-x final concentration and ramping the temperature from 20 to 90 °C, at 1 °C/min. Fluorescence data were acquired using the FRET channel. Data were processed using CFX Manager Software V3.0 (Bio-Rad) and the GraphPad Prism. Temperature scan curves were fitted to a biphasic dose–response function and the Tm values were obtained from the midpoint of the first (Tm1) and second transitions (Tm2) corresponding, respectively, to the thermal denaturation of the regulatory and catalytic domains. The Tm values in the presence of 3HQ were compared to those obtained in the presence of 1% DMSO (vehicle control) and a change in the Tm was considered significant when the |ΔTm| ≥ 2 °C [22].
# [2] = target: T1, human phenylalanine hydroxylase (hPAH); experiment: Limited proteolysis of hPAH by trypsin; conditions: 100 μM in 1% DMSO, 25 °C, trypsin:hPAH 1:200; control 0.41 ± 0.03
# Description: Limited proteolysis of purified hPAH was performed as previously described, at 25 °C in SEC buffer and with a trypsin (Sigma-Aldrich) to hPAH ratio of 1:200 (by mass; final hPAH protein concentration 300 μg/mL), in the presence of 100 µM of 3HQ derivatives or 1% DMSO. Control assays were also performed in the presence of 100 μM and 1 mM L-Phe. At different time points (0 to 60 min), aliquots of the reaction were mixed with soybean trypsin inhibitor (Sigma-Aldrich) at a protease to inhibitor ratio of 1:1.5 (by mass) and analyzed by SDS-PAGE (10% polyacrylamide). The band corresponding to full-length hPAH was quantified by densitometric analysis using the Quantity One 1D software v4.6.3 (Bio-Rad). Data were fitted to a single exponential decay equation to obtain the decay constant of proteolysis (kP). Assays were performed in duplicate and data represent the mean ± SEM.
# trypsin = experiment: Trypsin activity control with Z-Gly-Gly-Arg-AMC; type: biochemical; conditions: 100 μM compound; for relative (residual) trypsin activity: 1% DMSO control = 100%; for Trypsin Abs/min: control 512 ± 11
# Description: To rule out compounds that inhibit/inactivate trypsin, changes in the cleavage rate of N-(Benzyloxy)carbonyl-glycylglycylarginyl-7-amido-4-methylcoumarin (Z–Gly–Gly–Arg–AMC; Bachem, Bubendorf, Switzerland), a synthetic substrate of trypsin, were monitored by fluorimetric measurements in a microplate reader (FLUOstar Omega; BMGLabtech, Ortenberg, Germany). The assays (n = 3) were performed in a 96-well plate, in SEC buffer and in a final volume of 200 μL containing 1.5 μg/mL of trypsin, 50 μM of Z–Gly–Gly–Arg–AMC and 100 μM of 3HQs derivatives. Fluorescence was measured in real-time, with λexc 360 nm and λem 460 nm, during 30 min at 25 °C. Controls were performed using substrate alone with 1% DMSO (negative control) and trypsin with no compounds and 1% DMSO (positive control).
# [3] = target: T1, human phenylalanine hydroxylase (hPAH); experiment: Time-dependent loss of hPAH activity at 42 °C; type: biochemical; conditions: 100 μM compound; for protective effect on hPAH activity over time: up to 120 min at 42 °C; for remaining activity at 100 µM: read-out: hPAH residual activity, % of control sample
# Description: The hPAH time-dependent loss of activity at a fixed temperature was assessed in a period of 120 min, in the absence and presence of compounds. In these assays, the enzymatic reaction was performed essentially as described above for the Phe/3HQ-A condition. Compounds (100 μM) were pre-incubated with the enzyme at 42 °C. After a 30, 45, 60, 90 and 120 min period, an aliquot of the protein (5 μg) was incubated, at 37 °C, with 100 μM L-Phe for 4 min, and the reaction proceeded as above at 37 °C [19].
# [4] = 100 μM compound in 1% DMSO, control 43.4 ± 0.6
# [5] = 100 μM compound in 1% DMSO, control 53.5 ± 0.4
smiles,measurement,setting,value
CCOC(=O)[C@H](Cc1ccccc1)NC(=O)c1c(O)c(=O)[nH]c2ccc(OC(F)(F)F)cc12 [Compound 3],Tm1 (regulatory domain),[1]; [4],51.7 ± 0.4 °C
same,Tm2 (catalytic domain),[1]; [5],53.6 ± 0.2 °C
same,ΔTm1 (regulatory domain),[1],+8.3 ± 0.06 °C
same,ΔTm2 (catalytic domain),[1],+0.1 ± 0.01 °C
same,proteolytic rate (kP),[2],0.29 ± 0.04 min⁻¹
same,relative (residual) trypsin activity,trypsin,79%
same,Trypsin Abs/min,trypsin,403 ± 12 Abs/min
same,protective effect on hPAH activity over time,[3],protective effect was not observed
O=C(NCCc1ccccc1)c1c(O)c(=O)[nH]c2ccc(OC(F)(F)F)cc12 [Compound 8],Tm1 (regulatory domain),[1]; [4],43.3 ± 0.1 °C
same,Tm2 (catalytic domain),[1]; [5],52.2 ± 0.3 °C
same,ΔTm2 (catalytic domain),[1],-1.3 ± 0.01 °C
same,proteolytic rate (kP),[2],0.30 ± 0.01 min⁻¹
same,relative (residual) trypsin activity,trypsin,62%
same,Trypsin Abs/min,trypsin,319 ± 7 Abs/min
same,protective effect on hPAH activity over time,[3],protective effect was not observed
COC(=O)CC[C@H](NC(=O)c1c(O)c(=O)[nH]c2ccc(OC(F)(F)F)cc12)C(=O)OC [Compound 9],Tm1 (regulatory domain),[1]; [4],43.5 ± 0.1 °C
same,Tm2 (catalytic domain),[1]; [5],53.0 ± 0.1 °C
same,ΔTm1 (regulatory domain),[1],+0.2 ± 0.01 °C
same,ΔTm2 (catalytic domain),[1],-0.5 ± 0.01 °C
same,proteolytic rate (kP),[2],0.38 ± 0.04 min⁻¹
same,relative (residual) trypsin activity,trypsin,71%
same,Trypsin Abs/min,trypsin,362 ± 9 Abs/min
same,remaining activity at 100 µM,[3]; 60 min at 42 °C,136 ± 7%
same,remaining activity at 100 µM,[3]; 90 min at 42 °C,121 ± 32%
same,remaining activity at 100 µM,[3]; 120 min at 42 °C,176 ± 32%
COC(=O)CNC(=O)c1c(O)c(=O)[nH]c2ccc(OC(F)(F)F)cc12 [Compound 11],Tm1 (regulatory domain),[1]; [4],47.4 ± 0.1 °C
same,Tm2 (catalytic domain),[1]; [5],53.6 ± 0.2 °C
same,ΔTm1 (regulatory domain),[1],+4.0 ± 0.01 °C
same,proteolytic rate (kP),[2],0.41 ± 0.01 min⁻¹
same,relative (residual) trypsin activity,trypsin,92%
same,Trypsin Abs/min,trypsin,470 ± 11 Abs/min
same,remaining activity at 100 µM,[3]; 90 min at 42 °C,117 ± 33%
same,remaining activity at 100 µM,[3]; 120 min at 42 °C,168 ± 64%
"N[C@@H](Cc1ccccc1)C(=O)O [L-Phe, L-phenylalanine, reference compound]",Tm1 (regulatory domain),"[1]; 1 mM L-Phe, 1% DMSO",51.0 ± 0.2 °C
same,Tm2 (catalytic domain),"[1]; 1 mM L-Phe, 1% DMSO",58.4 ± 0.04 °C
same,proteolytic rate (kP),[2],0.15 ± 0.01 min⁻¹
